Assays:
[1] = biological target: human recombinant LPA1 Lysophospholipid receptor (Homo sapiens, UniProt Q92633); experiment: Calcium flux assay using FLIPR, LPA1R antagonist activity; assay type: cell-based; conditions: for IC50: ChemiScreen calcium-optimized stable cell line, FLIPR calcium flux, antagonist mode
Protocol: (§1) Calcium Flux Assay Using Fluorometric Imaging Plate Reader (FLIPR)
Cell Culture Conditions: The ChemiScreen Calcium-optimized stable cell line containing the human recombinant LPA1 Lysophospholipid receptor was purchased from Chemicon International, Inc./Millipore. The cells were cultured in DMEM-high glucose supplemented with 10% fetal bovine serum, 2 mM glutamine, 100 U/mL penicillin/100 μg/mL streptomycin, 1× non-essential amino acids, 10 mM HEPES and 0.25 mg/mL Geneticin. Cells were harvested with trypsin-EDTA and counted using ViaCount reagent. The cell suspension volume was adjusted to 2.0×10^5 cells/mL with complete growth media. Aliquots of 50 μL were dispensed into 384 well black/clear tissue culture treated plates (BD) and the microplates were placed in a 37° C. incubator overnight. The following day plates were used in the assay.
Dye Loading and Assay: Loading Buffer (FLIPR Calcium-4, Molecular Devices) was prepared by dissolving the contents of one bottle into 100 mL Hank's Balanced Salt Solution containing 20 mM HEPES and 2.5 mM probenecid. Plates were loaded onto Biotek plate washer and growth media was removed and replaced with 20 µL of Hank's Balanced Salt Solution containing 20 mM HEPES and 2.5 mM probenecid, followed by 25 μL of Loading Buffer. The plates were then incubated for 30 minutes at 37° C.
During the incubation, test compounds were prepared by adding 90 μL of HBSS/20 mM HEPES/0.1% BSA buffer to 2 μL of serially diluted compounds. To prepare serial dilutions, 10 mM stocks of compounds were prepared in 100% DMSO. The compound dilution plate was set up as follows: well #1 received 29 μL of stock compound and 31 μL DMSO; wells 2-10 received 40 μL of DMSO; mixed and transferred 20 μL of solution from well #1 into well #2; continued with 1:3 serial dilutions out 10 steps; transferred 2 μL of diluted compound into duplicate wells of 384 well “assay plate” and then added the 90 μL of buffer.
(§2) After incubation, both the cell and “assay” plates were brought to the FLIPR and 20 μL of the diluted compounds were transferred to the cell plates by the FLIPR. Compound addition was monitored by FLIPR to detect any agonist activity of the compounds. Plates were then incubated for 30 minutes at room temperature protected from light. After the incubation, plates were returned to the FLIPR and 20 μL of 4.5× concentrated agonist was added to the cell plates. During the assay, fluorescence readings were taken simultaneously from all 384 wells of the cell plate every 1.5 seconds. Five readings were taken to establish a stable baseline, then 20 μL of sample was rapidly (30 μL/sec) and simultaneously added to each well of the cell plate. The fluorescence was continuously monitored before, during and after sample addition for a total elapsed time of 100 seconds. Responses (increase in peak fluorescence) in each well following agonist addition was determined. The initial fluorescence reading from each well, prior to ligand stimulation, was used as zero baseline value for the data from that well. The responses were expressed as % inhibition of the buffer control.

LPA3R = biological target: T1, LPA3R (Homo sapiens, UniProt Q9UBY5); experiment: LPA3R antagonist activity (Table 1, calcium flux FLIPR); assay type: cell-based
T1 sequence (Q9UBY5 1-353): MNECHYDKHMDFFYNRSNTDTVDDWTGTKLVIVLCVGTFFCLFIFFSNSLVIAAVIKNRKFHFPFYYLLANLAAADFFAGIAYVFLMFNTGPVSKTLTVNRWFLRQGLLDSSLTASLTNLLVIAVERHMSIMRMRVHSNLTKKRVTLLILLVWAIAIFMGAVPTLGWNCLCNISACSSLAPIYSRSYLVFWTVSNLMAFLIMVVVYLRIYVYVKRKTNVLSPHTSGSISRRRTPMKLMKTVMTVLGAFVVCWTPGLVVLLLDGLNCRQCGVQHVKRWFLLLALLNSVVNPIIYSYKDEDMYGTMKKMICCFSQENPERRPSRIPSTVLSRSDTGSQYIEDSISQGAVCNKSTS
Protocol: as §1, §2

Sequence of human recombinant LPA1 Lysophospholipid receptor (Q92633 whole entry): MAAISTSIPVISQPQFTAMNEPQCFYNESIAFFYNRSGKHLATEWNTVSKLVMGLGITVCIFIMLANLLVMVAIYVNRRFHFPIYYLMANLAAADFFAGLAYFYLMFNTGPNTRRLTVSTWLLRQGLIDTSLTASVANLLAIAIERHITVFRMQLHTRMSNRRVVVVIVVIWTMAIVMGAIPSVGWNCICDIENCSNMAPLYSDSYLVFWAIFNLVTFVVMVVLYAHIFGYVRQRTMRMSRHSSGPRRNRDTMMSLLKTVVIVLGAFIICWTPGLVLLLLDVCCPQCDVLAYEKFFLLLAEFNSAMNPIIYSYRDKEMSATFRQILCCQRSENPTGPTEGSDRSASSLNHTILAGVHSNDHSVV

Row | SMILES | inhibition at 30 µM [1] [%] | IC50 [1] [µM] | IC50 (LPA3R) [µM]
1 | CC(OC(=O)Nc1c(-c2ccccc2F)cnn1C)c1cccc(C(F)(F)F)c1 (racemic) [Example 12, [4-(2-Fluoro-phenyl)-2-methyl-2H-pyrazol-3-yl]-carbamic acid 1-(3-trifluoromethyl-phenyl)-ethyl ester] | 50.5 | 24.6 | > 30
2 | CC(OC(=O)Nc1c(-c2ccccc2F)cnn1C)c1ccccc1Cl (racemic) [Example 13, [4-(2-Fluoro-phenyl)-2-methyl-2H-pyrazol-3-yl]-carbamic acid 1-(2-chloro-phenyl)-ethyl ester] |  | 1.4 | > 30
3 | C[C@@H](OC(=O)Nc1c(-c2ccccc2)cnn1C)c1ccccc1 [Example 1, 2-Methyl-4-phenyl-2H-pyrazol-3-yl-carbamic acid (R)-1-phenyl-ethyl ester] | 64.8 | 17.5 | > 30
4 | C[C@@H](OC(=O)Nc1c(-c2ccc(-c3ccc(CC(=O)O)cc3)cc2)cnn1C)c1ccccc1 [Example 2, {4′-[1-Methyl-5-((R)-1-phenyl-ethoxycarbonylamino)-1H-pyrazol-4-yl]-biphenyl-4-yl}-acetic acid] |  | 0.035 | > 30
5 | CC(OC(=O)Nc1c(-c2ccccc2)cnn1C)c1ccccc1Cl (stereo not drawn) [Example 3, (2-Methyl-4-phenyl-2H-pyrazol-3-yl)-carbamic acid 1-(2-chloro-phenyl)-ethyl ester] |  | 3.59 | 
6 | CCOC(=O)C1(c2ccc(-c3ccc(-c4cnn(C)c4NC(=O)O[C@H](C)c4ccccc4)cc3)cc2)CC1 [Example 4, 1-{4′-[1-Methyl-5-((R)-1-phenyl-ethoxycarbonylamino)-1H-pyrazol-4-yl]-biphenyl-4-yl}-cyclopropanecarboxylic acid ethyl ester] | 65.9 | 1.59 | > 30
7 | C[C@@H](OC(=O)Nc1c(-c2ccc(-c3ccc(C4(C(=O)O)CC4)cc3)cc2)cnn1C)c1ccccc1 [Example 5, 1-{4′-[1-Methyl-5-((R)-1-phenyl-ethoxycarbonylamino)-1H-pyrazol-4-yl]-biphenyl-4-yl}-cyclopropanecarboxylic acid] |  | 0.02 | 8.35
8 | CC(OC(=O)Nc1c(-c2ccc(-c3ccc(C4(C(=O)O)CC4)cc3)cc2)cnn1C)c1ccccc1Cl (stereo not drawn) [Example 6, 1-(4′-{5-[1-(2-Chloro-phenyl)-ethoxycarbonylamino]-1-methyl-1H-pyrazol-4-yl}-biphenyl-4-yl)-cyclopropanecarboxylic acid] |  | 0.112 | 2.47
9 | C[C@@H](OC(=O)Nc1c(-c2ccc(-c3ccccc3)cc2)cnn1C)c1ccccc1 [Example 7, (4-Biphenyl-4-yl-2-methyl-2H-pyrazol-3-yl)-carbamic acid (R)-1-phenyl-ethyl ester] |  | > 30 | > 30
10 | COc1ccc(-c2cnn(C)c2NC(=O)O[C@H](C)c2ccccc2)cc1 [Example 8, [4-(4-Methoxy-phenyl)-2-methyl-2H-pyrazol-3-yl]-carbamic acid (R)-1-phenyl-ethyl ester] |  | > 30 | > 30
11 | C[C@@H](OC(=O)Nc1c(-c2ccc(C3(C(=O)O)CC3)cc2)cnn1C)c1ccccc1 [Example 9, 1-{4-[1-Methyl-5-((R)-1-phenyl-ethoxycarbonylamino)-1H-pyrazol-4-yl]-phenyl}-cyclopropanecarboxylic acid] |  | > 30 | > 30
12 | C[C@@H](OC(=O)Nc1c(-c2ccc(CC(=O)O)cc2)cnn1C)c1ccccc1 [Example 10, {4-[1-Methyl-5-((R)-1-phenyl-ethoxycarbonylamino)-1H-pyrazol-4-yl]-phenyl}-acetic acid] |  | > 30 | > 30
13 | CC(OC(=O)Nc1c(-c2ccc(F)cc2)cnn1C)c1ccccc1Cl (stereo not drawn) [Example 11, [4-(4-Fluoro-phenyl)-2-methyl-2H-pyrazol-3-yl]-carbamic acid 1-(2-chloro-phenyl)-ethyl ester] |  | 3.93 | 

From patent US20150259295A1, “SUBSTITUTED PYRAZOLE COMPOUNDS AS LPAR ANTAGONISTS” (Hoffmann-La Roche Inc., priority 2012, published 2015)
